Results as given in patent US10314323B2, “Methods for improving the condition of hair in non-human animals” (Hill's Pet Nutrition, Inc., priority 2012, dated 2019).
“Also recorded” adds a separate entry of the source.

Tested on: healthy adult cats
Experiment: Hair 18-MEA content after feeding amino acid supplemented diets to healthy cats
Assay type: in vivo, cat
Conditions: versus control base diet, regression model with base line as covariant; p<0.05 for isoleucine and threonine, p>0.05 for leucine
From the text: The hair was clipped from the left middle flank areas of 24 healthy adult cats. The clipped regions measured approximately 20.32 cm by 10.16 cm (about 8 inches by about 4 inches). Hair was clipped as close to the skin as possible. The cats were then fed a base diet consisting of a commercially available nutritionally complete food for a period of 90 days. The nutrient content of the base food is set out in Table 1. On day 90, newly grown hair was clipped from the left middle flanks of the cats. The clipped regions measured approximately 19.05 cm by 8.89 cm (about 7.5 inches by about 3.5 inches). Samples of the clipped hair from each cat were retained and analysed for their 18-MEA content in order to determine the base line levels. The cats were divided into four groups of 6. The age, sex and nurturing status of the cats were balanced between the groups. The groups were randomly assigned a diet selected from the base diet, the base diet plus supplemental leucine, the base diet plus supplemental isoleucine, and the base diet plus supplemental threonine as shown in Table 2. The groups were fed the assigned diets for 90 days. On day 180, the newly grown hair was clipped from the left middle flanks of the cats. The clipped regions measured approximately 17.78 cm by 7.62 cm (about 7 inches by about 3 inches). Samples of clipped hair from each cat were retained and analysed for 18-MEA content. For the 18-MEA analysis, hair samples were first washed with circulating ethyl ether for 6 hours to remove the surface lipids and oils. The hair samples were cut into pieces about 5 mm in length or less, digested and extracted for 18-MEA that was measured with a gas chromatograph. The 18-MEA data were analysed using a regression model. Hair 18-MEA content was the dependent variable, and diet was used as the independent variable. The base line data were used as the covariant.

Structure (SMILES)	Effect on 18-MEA concentration of the hair
CC(C)C[C@H](N)C(=O)O [Leucine, leucine, reference compound]	no significant effect
C[C@@H](O)[C@H](N)C(=O)O [threonine, (2S, 3R)-2-amino-3-hydroxybutanoic acid]	increase; also recorded: significantly increased
CC[C@H](C)[C@H](N)C(=O)O [isoleucine, (2S, 3S)-2-amino-3-methylpentanoic acid]	increase; also recorded: significantly increased
